The text below walks through data of PubChem BioAssay AID1996.

Molecules are shown by their SMILES. Converted amounts (≈) assume the structure as drawn.

For this data set the following is noted: buffer; pH 7.4; 200.0 µM.
`O=S(=O)(c1ccc2ncn(O)c2c1)N1CCOCC1`: the kinetic solubility (as a rule, the concentration staying in solution when a stock, usually in DMSO, is diluted into the medium) was above 42.5 µg/mL.
With `O=C(NC(=O)c1ccccc1O)c1ccc(C(F)(F)F)cc1` the figure was 2.3 µg/mL (≈ 7.44 µM); with `COc1ccc(Oc2cccc(Cl)c2CNC(=O)CCC(=O)O)cc1`, 49.5 µg/mL (≈ 136 µM); with `Cc1ccc(C23CC4CC(CC(C(=O)NC(C(=O)O)C(C)C)(C4)C2)C3)cc1` (stereo not drawn), 48.1 µg/mL (≈ 130 µM).
To `OC(CN1CCC(Cc2ccccc2)CC1)C(F)(F)F` (stereo not drawn) belongs above 43.1 µg/mL; to `NC(=O)c1cc(-c2ccncc2)nc2ccc(Cl)cc12`, 37 µg/mL (≈ 130 µM).
To `CC1CN(CC(=O)NCc2ccc(Cl)cc2)CC(C)O1` (stereo not drawn) belongs above 44.5 µg/mL; to `O=S(=O)(Nc1ccccn1)c1ccc(Cl)c2ccccc12`, 1.4 µg/mL (≈ 4.39 µM).
Molecule `OC1(c2ccccn2)COc2ccccc2O1` (stereo not drawn) gave a kinetic solubility of 28.1 µg/mL (≈ 123 µM).
With `CCSc1nnc(NC(=O)c2c(C)noc2C)s1` the figure was above 42.7 µg/mL; with `CC(=O)Nc1ccc2c(c1)CCCC2=O`, 30.2 µg/mL (≈ 149 µM); with `Nc1ccc(Nc2nc3ccccc3[nH]2)cc1`, 25.8 µg/mL (≈ 115 µM).
`COc1ccc(NC(=O)c2c(N)cnn2C)cc1` yielded a kinetic solubility above 36.9 µg/mL.
Turning to `Cc1ccccc1N1C(=O)CC2(CCCC2)CC1=O`, the kinetic solubility is 37.2 µg/mL (≈ 145 µM).
With `CCN(c1cccc(C)c1)S(=O)(=O)c1csc(C(N)=O)c1`, the kinetic solubility was above 48.7 µg/mL.
With `CC1=C(C(=O)c2ccccc2)C(c2ccc(O)cc2)NC(=S)N1` (stereo not drawn) the figure was 21.8 µg/mL (≈ 67.2 µM); with `CC(=O)c1ccc(NC(=O)Nc2ccncc2)cc1`, above 38.3 µg/mL.
To `O=C(NCCc1ccc(Cl)cc1)c1cnccn1` belongs above 39.3 µg/mL.
To `Cn1c(N)c(C(=O)COC(=O)c2cccc(S(=O)(=O)N3CCOCC3)c2)c(=O)n(C)c1=O` belongs 20 µg/mL (≈ 42.9 µM); to `CSc1ccccc1NC(=O)CN(C)C(=O)COc1cccc2cccnc12`, above 59.3 µg/mL; to `CCCCCCCNc1cccc(C)c1`, below 0.4 µg/mL.
Molecule `O=C(Nc1c(C(=O)O)[nH]c2ccccc12)c1cccc(C(F)(F)F)c1` showed a solubility (kinetic) above 52.2 µg/mL.
With `CN1CCN(c2ccc([N+](=O)[O-])cc2NC(=O)c2ccco2)CC1` the figure was 20.8 µg/mL (≈ 63 µM); with `Cc1[nH]c2ccccc2c1C(=O)C(=O)NCCOc1ccccc1`, 2.2 µg/mL (≈ 6.82 µM).
With `N#Cc1ccc(CSc2ncccn2)cc1`, the kinetic solubility is above 34.1 µg/mL.
With `O=C(CCC(=O)c1ccc(Cl)cc1)NCc1ccccc1` the figure was 14.3 µg/mL (≈ 47.4 µM).
With `Cc1cnc(C(=O)OCC(=O)c2ccc[nH]2)cn1` the figure was above 36.8 µg/mL; with `CC(=O)Oc1ccc(N(C(C)=O)S(=O)(=O)c2ccc(C)cc2C)c2ccccc12`, 4.3 µg/mL (≈ 10.5 µM).
Take `Cc1nc(-c2noc(-c3cccc(Cl)c3)n2)c(C(F)(F)F)o1`: the kinetic solubility was below 0.2 µg/mL.
With `Cc1ccsc1CNCCc1ccccc1F` the figure was 27.1 µg/mL (≈ 109 µM).
With `O=C(NC1CC1)C1CCN(C(=O)c2ccc(Cl)cc2Cl)CC1` the figure was above 51.2 µg/mL; with `O=C(NCCc1ccccc1)C1CCN(Cc2cccc3ccccc23)CC1`, 6.2 µg/mL (≈ 16.6 µM); with `COc1cc(C(=O)NCCNC(=O)c2cnccn2)cc(OC)c1OC`, 39.4 µg/mL (≈ 109 µM).
To `CC(C)C(=O)Nc1ccc(NC(=O)CCc2ccccc2)cn1` belongs above 46.7 µg/mL; to `Oc1ccc(Nc2nc(-c3ccccc3F)nc3ccccc23)cc1`, 1.4 µg/mL (≈ 4.23 µM).
As for `COc1cc(CC(=O)OCC(=O)c2ccc[nH]2)cc(OC)c1OC`, the solubility (kinetic) is above 50 µg/mL.
With `COc1ccc(N2CCc3c(C)nc4c(OC)cc(OC)cc4c32)cc1` the figure was above 52.6 µg/mL; with `CNS(=O)(=O)c1ccc(NS(=O)(=O)c2ccccc2F)cc1`, 51 µg/mL (≈ 148 µM).
Consider `O=C(OCC(=O)N1CCOCC1)c1ccc2ccccc2c1O`, for which the kinetic solubility was 28.2 µg/mL (≈ 89.4 µM).
With `CC(=O)Nc1ccc(S(=O)(=O)NC(C(=O)O)C(C)O)cc1` (stereo not drawn) the figure was above 47.4 µg/mL; with `CC(=O)N[C@@H](Cc1c[nH]c2ccccc12)C(=O)NC1CC1`, above 42.8 µg/mL; with `CCN(C(=O)c1ccco1)C1C2CC3CC(C2)CC1C3` (stereo not drawn), 26.1 µg/mL (≈ 95.5 µM).
With `CCOc1ccccc1C(=O)N[C@H](C(=O)OCc1csc(CC(=O)Nc2ccc(C)cc2)n1)C(C)C` the figure was 6.9 µg/mL (≈ 13.5 µM).
With `O=C(O)C(=O)O.O=S(=O)(c1cccc(C(F)(F)F)c1)N1CCN(CC(O)COCc2ccccc2)CC1` (stereo not drawn) the figure was above 82.3 µg/mL.
`CCOc1ccc(C(=O)CCC(=O)Nc2ccncc2)cc1` gave a kinetic solubility of 42.9 µg/mL (≈ 144 µM).
With `CC(C)N(Cc1ccccc1)C(=O)COc1ccccc1` the figure was 36.6 µg/mL (≈ 129 µM); with `COC(=O)Cc1c(O)ccn(Cc2ccc(Cl)c(Cl)c2)c1=O`, above 51.3 µg/mL; with `CN(C)c1ccc(C(=O)NC2(N3CCC3=O)CCCC2)cc1`, above 45.2 µg/mL.
With `Cc1ccc(NC(=S)Nc2ccccn2)c(C)c1` the figure was 3.1 µg/mL (≈ 12 µM); with `O=C(c1ccc(F)cc1Cl)N1CCN(CCc2ccccc2)CC1`, above 52 µg/mL; with `NS(=O)(=O)c1cnccc1Nc1cccc(Br)c1`, 36.3 µg/mL (≈ 111 µM).
With `CC1CC(=O)N(c2ccc(C(C)C)cc2)C(=O)C1` the figure was 35 µg/mL (≈ 143 µM); with `Cc1nc(Cc2nnc(SCC(=O)N3CC(=O)Nc4ccccc43)o2)cs1`, above 60.2 µg/mL.
Molecule `Nc1ccccc1SCC(O)Cn1ccc2ccccc21` (stereo not drawn) returned a solubility (kinetic) above 44.8 µg/mL.
To `COC(=O)COc1c(Cl)cc(Cl)c2ccc(C)nc12` belongs 6.7 µg/mL (≈ 22.3 µM); to `CC(=O)c1cccc(NS(=O)(=O)N2CCOCC2)c1`, above 42.6 µg/mL.
To `COc1ccc2oc(=O)c(C(=O)NCc3ccc(C)cc3)cc2c1` belongs below 0.7 µg/mL.
Molecule `CCOC(=O)C1=C(N)OC2=C(C(=O)CCC2)C12C(=O)N(C)c1ccccc12` (stereo not drawn) displayed a solubility (kinetic) of 29.1 µg/mL (≈ 79 µM).
To `Cn1c(SCc2ccc([N+](=O)[O-])cc2)nc2c(c1=O)SCC2` belongs 1.6 µg/mL (≈ 4.77 µM); to `Cn1c(=O)c(C(=O)NCCCc2ccccc2)c(O)c2ccccc21`, below 0.4 µg/mL.
The molecule `CC1CCC(NC(=O)CNC(=O)c2cccs2)CC1` (stereo not drawn) gave a kinetic solubility above 42.1 µg/mL.
As for `CC(=O)N(c1ccc(Cl)cc1)c1nc(C)cc(C)c1C#N`, the kinetic solubility is above 45 µg/mL.
With `O=C(Nc1ccc([N+](=O)[O-])cc1)OCCc1ccccn1` the figure was 0.6 µg/mL (≈ 2.09 µM); with `Cc1nc2cc(NC(=O)c3ccco3)ccc2n1C`, 38.2 µg/mL (≈ 150 µM); with `CCCCC(C(=O)O)C(C)CC(=O)Nc1nccs1` (stereo not drawn), above 42.7 µg/mL.
For `CC(C)C(NC(=O)c1ccccc1F)C(=O)NCCCn1ccnc1` (stereo not drawn), the kinetic solubility is above 52 µg/mL.
As for `CSc1ccccc1NC(=O)COC(=O)c1ccc(O)cc1`, the solubility (kinetic) was 12.2 µg/mL (≈ 38.4 µM).
With `CS(=O)(=O)N(CC(=O)NCC1CCCO1)c1cccc(Cl)c1` (stereo not drawn) the figure was above 52 µg/mL; with `COc1ccccc1CC(=O)Nc1cccc(C)n1`, above 38.4 µg/mL; with `O=C(O)CCN1C(=O)C2C3c4ccccc4C(c4ccccc43)C2C1=O` (stereo not drawn), above 52.1 µg/mL.
In the case of `CCOc1ccc(N/C=C/C(=O)c2ccc(OC)c(OC)c2)cc1`, the solubility (kinetic) came to 2.2 µg/mL (≈ 6.72 µM).
To `CN1CCN(CCCN2c3ccccc3Sc3ccc(Cl)cc32)CC1.O=S(=O)(O)CCS(=O)(=O)O` belongs 73.3 µg/mL; to `Cc1ccc2nc(SCC3CCCCO3)[nH]c2c1` (stereo not drawn), 37.4 µg/mL (≈ 143 µM).
